Measurements from patent US8952024B2, “Herbicidal pyrimidone derivatives” (E I du Pont de Nemours and Company, priority 2009, dated 2015).

Tests used:
Format in all cases: in vivo
[1] = test system: pigweed (Amaranthus retroflexus); assay: Test B pre-/postemergence plant response
From the text: (§1) Seeds of plant species selected from blackgrass (Alopecurus myosuroides), downy bromegrass (Bromus tectorum), green foxtail (Setaria viridis), Italian ryegrass (Lolium multiflorum), wheat (Triticum aestivum), wild oat (Avena fatua), deadnettle (henbit deadnettle, Lamium amplexicaule), galium (catchweed bedstraw, Galium aparine), bermudagrass (Cynodon dactylon), Surinam grass (Brachiaria decumbens), cocklebur (Xanthium strumarium), corn (Zea mays), large crabgrass (Digitaria sanguinalis), woolly cupgrass (Eriochloa villosa), giant foxtail (Setaria faberii), goosegrass (Eleusine indica), johnsongrass (Sorghum halepense), kochia (Kochia scoparia), lambsquarters (Chenopodium album), morningglory (Ipomoea coccinea), nightshade (eastern black nightshade, Solanum ptycanthum), yellow nutsedge (Cyperus esculentus), pigweed (Amaranthus retroflexus), ragweed (common ragweed, Ambrosia elatior), Russian thistle (Salsola kali), soybean (Glycine max), sunflower (common oilseed sunflower, Helianthus annuus) and velvetleaf (Abutilon theophrasti) were planted into a blend of loam soil and sand and treated preemergence with test compounds formulated in a non-phytotoxic solvent mixture which included a surfactant.
(§2) At the same time, plants selected from these crop and weed species and also winter barley (Hordeum vulgare), canarygrass (Phalaris minor), chickweed (Stellaria media) and windgrass (Apera spica-venti) were planted in pots containing Redi-Earth® planting medium (Scotts Company, 14111 Scottslawn Road, Marysville, Ohio 43041) comprising spaghnum peat moss, vermiculite, wetting agent and starter nutrients and treated with postemergence applications of some of the test chemicals formulated in the same manner. Plants ranged in height from 2 to 18 cm (1- to 4-leaf stage) for postemergence treatments.
(§3) Treated plants and controls were maintained in a greenhouse for 13 to 15 days, after which time all treated plants were visually evaluated and compared to controls. Plant response ratings, summarized in Table B, are based on a scale of 0 to 100 where 0 is no effect and 100 is complete control. A dash (-) response means no test result.

[2] = test system: johnsongrass (Sorghum halepense); assay: Test B pre-/postemergence plant response
From the text: as §1, §2, §3

[3] = test system: giant foxtail (Setaria faberii); assay: Test B pre-/postemergence plant response
From the text: as §1, §2, §3

[4] = test system: downy bromegrass (Bromus tectorum); assay: Test B pre-/postemergence plant response
From the text: as §1, §2, §3

[5] = test system: green foxtail (Setaria viridis); assay: Test B pre-/postemergence plant response
From the text: as §1, §2, §3

[6] = test system: velvetleaf (Abutilon theophrasti); assay: Test B pre-/postemergence plant response
From the text: as §1, §2, §3

soybean (Glycine max) = assay: Test B pre-/postemergence plant response
From the text: as §1, §2, §3

[7] = test system: ragweed (common ragweed, Ambrosia elatior); assay: Test B pre-/postemergence plant response
From the text: as §1, §2, §3

[8] = test system: bermudagrass (Cynodon dactylon); assay: Test B pre-/postemergence plant response
From the text: as §1, §2, §3

[9] = test system: Italian ryegrass (Lolium multiflorum); assay: Test B pre-/postemergence plant response
From the text: as §1, §2, §3

[10] = test system: morningglory (Ipomoea coccinea); assay: Test B pre-/postemergence plant response
From the text: as §1, §2, §3

[11] = test system: wheat (Triticum aestivum); assay: Test B pre-/postemergence plant response
From the text: as §1, §2, §3

corn (Zea mays) = assay: Test B pre-/postemergence plant response
From the text: as §1, §2, §3

[12] = test system: blackgrass (Alopecurus myosuroides); assay: Test B pre-/postemergence plant response
From the text: as §1, §2, §3

[13] = test system: goosegrass (Eleusine indica); assay: Test B pre-/postemergence plant response
From the text: as §1, §2, §3

[14] = test system: winter barley (Hordeum vulgare); assay: Test B postemergence plant response; conditions: Postemergence
Summary of the method: (§4)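 Plants at the 1- to 4-leaf stage (2 to 18 cm tall), grown in pots of peat moss/vermiculite medium with wetting agent and starter nutrients, received postemergence applications of test chemicals. After 13 to 15 days in a greenhouse, injury was rated visually against untreated controls on a 0 (no effect) to 100 (complete control) scale.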

[15] = test system: canarygrass (Phalaris minor); assay: Test B postemergence plant response; conditions: Postemergence
Summary of the method: as §4

[16] = test system: chickweed (Stellaria media); assay: Test B postemergence plant response; conditions: Postemergence
Summary of the method: as §4

[17] = 250 g ai/ha, Preemergence, 0 to 100 scale
[18] = Postemergence, 31 g ai/ha, scale 0 to 100 (0 no effect, 100 complete control)
[19] = Postemergence, 62 g ai/ha, scale 0 (no effect) to 100 (complete control), 13 to 15 days
[20] = Postemergence, 125 g ai/ha, visual rating after 13 to 15 days, scale 0 (no effect) to 100 (complete control)
[21] = Postemergence, 250 g ai/ha, scale 0 to 100
[22] = Preemergence, 31 g ai/ha, scale 0 to 100 (0 no effect, 100 complete control)
[23] = Preemergence, 62 g ai/ha, scale 0 to 100, 0 no effect, 100 complete control
[24] = Preemergence, 125 g ai/ha, 0 to 100 scale
[25] = 31 g ai/ha, scale 0 to 100 (0 no effect, 100 complete control)
[26] = 62 g ai/ha, scale 0 (no effect) to 100 (complete control), 13 to 15 days

O=C1CCCC(O)=C1C(=O)c1cnc(-c2ccccc2)n(-c2ccc(F)cc2)c1=O [Compound 24]
Plant response rating, Pigweed [1, 17]: 100
Plant response rating, Pigweed [1, 18]: 70
Plant response rating, Pigweed [1, 19]: 80
Plant response rating, Pigweed [1, 20]: 80
Pigweed plant response rating [1, 21]: 80
Plant response rating, Pigweed [1, 22]: 98
Plant response rating, Pigweed [1, 23]: 100
Pigweed plant response rating [1, 24]: 100
Plant response rating, Johnsongrass [2, 17]: 90
Plant response rating, Johnsongrass [2, 18]: 60
Plant response rating, Johnsongrass [2, 19]: 60
Plant response rating, Johnsongrass [2, 20]: 70
Johnsongrass plant response rating [2, 21]: 80
Plant response rating, Johnsongrass [2, 22]: 20
Plant response rating, Johnsongrass [2, 23]: 85
Johnsongrass plant response rating [2, 24]: 90
Plant response rating, Foxtail, Giant [3, 17]: 100
Plant response rating, Foxtail, Giant [3, 18]: 70
Plant response rating, Foxtail, Giant [3, 19]: 85
Plant response rating, Foxtail, Giant [3, 20]: 90
Foxtail, Giant plant response rating [3, 21]: 95
Plant response rating, Foxtail, Giant [3, 22]: 30
Plant response rating, Foxtail, Giant [3, 23]: 85
Foxtail, Giant plant response rating [3, 24]: 90
Plant response rating, Bromegrass, Downy [4, 17]: 20
Plant response rating, Bromegrass, Downy [4, 18]: 25
Plant response rating, Bromegrass, Downy [4, 19]: 50
Plant response rating, Bromegrass, Downy [4, 20]: 70
Bromegrass, Downy plant response rating [4, 21]: 75
Plant response rating, Bromegrass, Downy [4, 22]: 0
Plant response rating, Bromegrass, Downy [4, 23]: 0
Bromegrass, Downy plant response rating [4, 24]: 0
Plant response rating, Foxtail, Green [5, 17]: 100
Plant response rating, Foxtail, Green [5, 18]: 40
Plant response rating, Foxtail, Green [5, 19]: 40
Plant response rating, Foxtail, Green [5, 20]: 90
Foxtail, Green plant response rating [5, 21]: 95
Plant response rating, Foxtail, Green [5, 22]: 0
Plant response rating, Foxtail, Green [5, 23]: 40
Foxtail, Green plant response rating [5, 24]: 100
Plant response rating, Velvetleaf [6, 17]: 100
Plant response rating, Velvetleaf [6, 18]: 75
Plant response rating, Velvetleaf [6, 19]: 90
Plant response rating, Velvetleaf [6, 20]: 98
Velvetleaf plant response rating [6, 21]: 98
Plant response rating, Velvetleaf [6, 22]: 98
Plant response rating, Velvetleaf [6, 23]: 100
Velvetleaf plant response rating [6, 24]: 100
Plant response rating, Soybean (soybean (Glycine max); [17]): 85
Plant response rating, Soybean (soybean (Glycine max); [18]): 85
Plant response rating, Soybean (soybean (Glycine max); [19]): 95
Plant response rating, Soybean (soybean (Glycine max); [20]): 95
Soybean plant response rating (soybean (Glycine max); [21]): 100
Plant response rating, Soybean (soybean (Glycine max); [22]): 45
Plant response rating, Soybean (soybean (Glycine max); [23]): 60
Soybean plant response rating (soybean (Glycine max); [24]): 80
Plant response rating, Ragweed [7, 17]: 100
Plant response rating, Ragweed [7, 18]: 70
Plant response rating, Ragweed [7, 19]: 80
Plant response rating, Ragweed [7, 20]: 90
Ragweed plant response rating [7, 21]: 98
Plant response rating, Ragweed [7, 22]: 85
Plant response rating, Ragweed [7, 23]: 90
Ragweed plant response rating [7, 24]: 98
Plant response rating, Bermudagrass [8, 17]: 100
Plant response rating, Bermudagrass [8, 18]: 85
Plant response rating, Bermudagrass [8, 19]: 95
Plant response rating, Bermudagrass ([8]; Postemergence, 125 g ai/ha, scale 0 to 100 (0 no effect, 100 complete control), 13 to 15 days): 100
Bermudagrass plant response rating [8, 21]: 100
Plant response rating, Bermudagrass [8, 22]: 95
Plant response rating, Bermudagrass [8, 23]: 100
Bermudagrass plant response rating [8, 24]: 100
Plant response rating, Ryegrass, Italian [9, 17]: 10
Plant response rating, Ryegrass, Italian [9, 18]: 0
Plant response rating, Ryegrass, Italian [9, 19]: 5
Plant response rating, Ryegrass, Italian [9, 20]: 40
Ryegrass, Italian plant response rating [9, 21]: 50
Plant response rating, Ryegrass, Italian [9, 22]: 0
Plant response rating, Ryegrass, Italian [9, 23]: 0
Ryegrass, Italian plant response rating [9, 24]: 10
Plant response rating, Morningglory [10, 17]: 100
Plant response rating, Morningglory [10, 18]: 50
Plant response rating, Morningglory [10, 19]: 60
Plant response rating, Morningglory [10, 20]: 60
Morningglory plant response rating [10, 21]: 90
Plant response rating, Morningglory [10, 22]: 100
Plant response rating, Morningglory [10, 23]: 100
Morningglory plant response rating [10, 24]: 100
Plant response rating, Wheat [11, 17]: 0
Plant response rating, Wheat [11, 18]: 5
Plant response rating, Wheat [11, 19]: 10
Plant response rating, Wheat [11, 20]: 30
Wheat plant response rating [11, 21]: 50
Plant response rating, Wheat [11, 22]: 0
Plant response rating, Wheat [11, 23]: 0
Wheat plant response rating [11, 24]: 0
Plant response rating, Corn (corn (Zea mays); [17]): 5
Plant response rating, Corn (corn (Zea mays); [18]): 30
Plant response rating, Corn (corn (Zea mays); [19]): 50
Plant response rating, Corn (corn (Zea mays); [20]): 85
Corn plant response rating (corn (Zea mays); [21]): 85
Plant response rating, Corn (corn (Zea mays); [22]): 0
Plant response rating, Corn (corn (Zea mays); [23]): 0
Corn plant response rating (corn (Zea mays); [24]): 0
Plant response rating, Blackgrass [12, 17]: 10
Plant response rating, Blackgrass [12, 18]: 5
Plant response rating, Blackgrass [12, 19]: 10
Plant response rating, Blackgrass [12, 20]: 40
Blackgrass plant response rating [12, 21]: 50
Plant response rating, Blackgrass [12, 22]: 0
Plant response rating, Blackgrass [12, 23]: 0
Blackgrass plant response rating [12, 24]: 0
Plant response rating, Goosegrass [13, 17]: 100
Plant response rating, Goosegrass [13, 18]: 85
Plant response rating, Goosegrass [13, 19]: 85
Plant response rating, Goosegrass [13, 20]: 85
Goosegrass plant response rating [13, 21]: 98
Plant response rating, Goosegrass [13, 22]: 85
Goosegrass plant response rating [13, 24]: 100
Plant response rating, Barley [14, 25]: 0
Plant response rating, Barley [14, 26]: 5
Plant response rating, Barley ([14]; 125 g ai/ha, scale 0 to 100 (0 no effect, 100 complete control), 13 to 15 days): 50
Barley plant response rating ([14]; 250 g ai/ha, scale 0 to 100): 70
Plant response rating, Canarygrass [15, 25]: 40
Plant response rating, Canarygrass [15, 26]: 40
Canarygrass plant response rating ([15]; 250 g ai/ha, scale 0 to 100): 60
Plant response rating, Chickweed [16, 25]: 80
Plant response rating, Chickweed [16, 26]: 90
Plant response rating, Chickweed ([16]; 125 g ai/ha, visual rating after 13 to 15 days, scale 0 (no effect) to 100 (complete control)): 95
Chickweed plant response rating ([16]; 250 g ai/ha, scale 0 to 100): 100
